From article PMC10287695, “Non-covalent inhibitors of thioredoxin glutathione reductase with schistosomicidal activity in vivo” (Nature Communications, 2023)
pEC50: −log10 of the molar value. “And” between values parts separate entries of the source, which are not always exact repeats. Equal entries are not always repeated. Where two headings read alike, the source gives them in different places. Marks after values point to notes of the source that are not given here.

Experiments:
[1] = target: T1, Human GR (Homo sapiens, UniProt P00390); assay: Human GR enzyme inhibition (GSSG reduction, NADPH oxidation); type: biochemical; details: for inhibition at 15 µM / inhibition at 30 µM / inhibition at 66.7 µM / inhibition at 5 µM: hGR; for inhibition at 15 µM: compound 15 µM; for inhibition at 15 µM / inhibition at 30 µM / inhibition at 66.7 µM: read-out: % inhibition; for inhibition at 30 µM: compound 30 µM; for inhibition at 66.7 µM: compound 66.7 µM; for inhibition at 5 µM: compound 5 µM
T1 construct: made in house
T1 sequence (P00390 44-522): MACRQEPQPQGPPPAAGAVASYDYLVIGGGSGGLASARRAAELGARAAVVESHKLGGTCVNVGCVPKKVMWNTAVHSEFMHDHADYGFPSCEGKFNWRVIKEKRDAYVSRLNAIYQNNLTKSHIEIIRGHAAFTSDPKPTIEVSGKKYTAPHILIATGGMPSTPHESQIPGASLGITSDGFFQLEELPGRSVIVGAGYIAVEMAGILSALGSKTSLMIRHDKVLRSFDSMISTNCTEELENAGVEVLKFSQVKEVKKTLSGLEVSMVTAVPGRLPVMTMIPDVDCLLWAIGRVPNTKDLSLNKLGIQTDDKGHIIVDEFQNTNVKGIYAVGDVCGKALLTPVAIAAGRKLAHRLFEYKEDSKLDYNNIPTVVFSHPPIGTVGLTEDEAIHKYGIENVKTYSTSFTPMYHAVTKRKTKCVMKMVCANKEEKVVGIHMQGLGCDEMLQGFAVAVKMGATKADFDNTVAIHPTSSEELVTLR

[2] = tested on: Vero cells; assay: Cytotoxicity in mammalian cells (Cell Titer Glo); type: cell-based; details: for LD50 ex vivo VERO: African green monkey, 24 h
Experimental: Following overnight incubation, formulated DMSO-compound stock solutions were diluted with DMEM at <1% DMSO final concentrations. […] Vero cells treated similarly with different concentrations of PZQ, MZM and AF (Cayman Chemicals) were used as positive controls.

[3] = tested on: TGR in newly transformed schistosomula (NTS); assay: TGR inhibition in NTS with TRFS-Green fluorescent probe; type: cell-based, S. mansoni; details: 2 h with inhibitor (30 µM; AF 3 µM) then TRFS-Green 10 µM
Procedure, shortened: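 TGR activity in NTS was probed with the fluorescent reagent TRFS-Green. Parasites in M199 medium with glucose, antibiotics and heat-inactivated serum were kept overnight in clear-bottom plates, exposed to 10 µM probe for 4 h, then washed. Signal from probe uptake was read on a microplate imager (ex 438 nm, em 538 nm) hourly for 5 h and after 24 h.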

[4] = tested on: S. mansoni adult worms; assay: Schistosomicidal activity ex vivo, adult worms (Cell Titer Glo), alone or with channel blockers; type: cell-based; details: for LD50 ex vivo S. mansoni adult: 24 h exposure; for viability at 5 µM / viability at 10 µM / viability at 25 µM / viability at 30 µM / viability at 50 µM / viability at 100 µM: Schistosoma mansoni
Experimental: Three-week old, female Swiss-Webster mice obtained from the Charles River were housed in the Comparative Research Center of Rush University Medical Center. Mice were infected by percutaneous tail exposure to about 200 S. mansoni or 50 S. japonicum cercaria for adult worms and about 1000 cercaria for juvenile S. mansoni worms through natural transdermal penetration of the cercariae for 1 h[81].
DMSO formulated compounds were diluted with phenol red free M199 medium or RPMI medium for NTS or juvenile and adult worms, respectively, at <1% DMSO final concentrations. NTS, juvenile and adult worms from overnight cultures were tested against compounds in triplicate. Controls were treated with DMSO alone or 5 µM AF as a positive control in appropriate medium. […] Schistosome viabilities in the presence of the compounds were assessed using this formula: % Viability = Averages of Test / Averages of DMSO Control x 100.

[5] = tested on: S. mansoni newly transformed schistosomula (NTS); assay: Schistosomicidal activity ex vivo, NTS (Cell Titer Glo); type: cell-based; details: for LD50 ex vivo S. mansoni NTS: 24 h exposure, Cell TiterGlo
Procedure, shortened: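 Viability, expressed relative to DMSO-treated worms, was measured as ATP content (Cell Titer Glo) after 24 or 72 h of compound exposure in triplicate. Mechanically transformed S. mansoni NTS were cultured at 240 per well in M199 with glucose and 5% FBS at 37 °C; DMSO <1%, AF 5 µM as positive control.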

[6] = 10 µM, compound alone, read-out: % viability, adult worms
[7] = 30 µM, compound alone, read-out: % viability, adult worms
[8] = S. mansoni adult worms, Conc. 10 µM, read-out: % viability
[9] = S. mansoni adult worms, Conc. 30 µM, read-out: % viability

SMILES | Human GR (inhibition at 66.7 µM) [1] | inhibition at 15 µM ([1]; 15 minutes pre-incubation) [%] | inhibition at 30 µM ([1]; 15 minutes pre-incubation) [%] | inhibition at 66.7 µM ([1]; 15 minutes pre-incubation) [%] | inhibition at 15 µM ([1]; 6 hours pre-incubation) [%] | inhibition at 30 µM ([1]; 6 hours pre-incubation) [%] | inhibition at 66.7 µM ([1]; 6 hours pre-incubation) [%] | LD50 ex vivo VERO [2] | TRFS-Green fluorescence in NTS [3] | LD50 ex vivo S. mansoni adult ([4]; compound alone) | viability at 10 µM [4, 6] [%] | viability at 30 µM [4, 7] [%] | viability at 10 µM [4, 8] [%] | viability at 30 µM [4, 9] [%] | LD50 ex vivo S. mansoni NTS [5] [µM] | viability at 1 µM ([5]; Schistosoma mansoni) [%] | viability at 5 µM ([5]; Schistosoma mansoni) [%] | other results
Cc1oc(C2CCCCC2)nc1C(=O)N[C@@H]1C[C@@H]2C[C@H]([C@H]1C)C2(C)C [Compound 7] | n.i. | -0.669 | -0.696 | -1.12 | -0.918 | -2.19 | -0.656 | >50^a µM | significant decreases in fluorescence | 32.6 ± 0.26 µM | 72.9 | 59 | 72.9 | 59 | 4.7 ± 0.31 | 85.7 | 40.2 | viability at 5 µM ([4]; 5 µM, compound alone, read-out: % viability, adult worms): 99.8%; viability at 25 µM ([4]; 25 µM, compound alone, read-out: % viability, adult worms): 63%; viability at 5 µM ([4]; S. mansoni adult worms, Conc. 5 µM, read-out: % viability): 99.8%; viability at 25 µM ([4]; S. mansoni adult worms, Conc. 25 µM, read-out: % viability): 63%; viability at 1.5 µM ([5]; Schistosoma mansoni): 72.1%; viability at 2.5 µM ([5]; Schistosoma mansoni): 47.6%
C[C@@H]1[C@H]2C[C@@H](C[C@H]1NCc1nc3ccccc3n1C1CCCCCC1)C2(C)C [Compound 8] | n.i. | -0.934 | -0.111 | -0.91 | -4.52 | -1.03 | 9.42 | 32.7 ± 2.99 µM | significant decreases in fluorescence | 22.3 ± 0.2 µM and 22.3 ± 0.20 µM | 85.4 | 30.6 | 85.4 | 30.6 | 9.4 ± 0.74 | 91.9 | 84.8 | inhibition at 5 µM ([1]; 15 minutes pre-incubation): -0.362%; inhibition at 5 µM ([1]; 6 hours pre-incubation): -1.4%; pEC50 ([2]; Chlorocebus sabaeus, Vero, estimate from raw data, read-out: EC50 viability of Vero cells): < 4.30; viability at 50 µM ([4]; 50 µM, compound alone, read-out: % viability, adult worms): 14%; viability at 100 µM ([4]; 100 µM, compound alone, read-out: % viability, adult worms): 6.59%; viability at 50 µM ([4]; S. mansoni adult worms, Conc. 50 µM, read-out: % viability): 14%; viability at 100 µM ([4]; S. mansoni adult worms, Conc. 100 µM, read-out: % viability): 6.59%; viability at 0.1 µM ([5]; Schistosoma mansoni): 99.8%; viability at 10 µM ([5]; Schistosoma mansoni): 33.1%; viability at 15 µM ([5]; Schistosoma mansoni): 28.2%; viability at 30 µM ([5]; Schistosoma mansoni): 11.9%; viability at 50 µM ([5]; Schistosoma mansoni): 1.87%; viability at 100 µM ([5]; Schistosoma mansoni): 0.303%
